Data set [1] addresses T1, Fatty-acid amide hydrolase 1 (Homo sapiens, UniProt O00519).
T1 sequence (O00519 whole entry): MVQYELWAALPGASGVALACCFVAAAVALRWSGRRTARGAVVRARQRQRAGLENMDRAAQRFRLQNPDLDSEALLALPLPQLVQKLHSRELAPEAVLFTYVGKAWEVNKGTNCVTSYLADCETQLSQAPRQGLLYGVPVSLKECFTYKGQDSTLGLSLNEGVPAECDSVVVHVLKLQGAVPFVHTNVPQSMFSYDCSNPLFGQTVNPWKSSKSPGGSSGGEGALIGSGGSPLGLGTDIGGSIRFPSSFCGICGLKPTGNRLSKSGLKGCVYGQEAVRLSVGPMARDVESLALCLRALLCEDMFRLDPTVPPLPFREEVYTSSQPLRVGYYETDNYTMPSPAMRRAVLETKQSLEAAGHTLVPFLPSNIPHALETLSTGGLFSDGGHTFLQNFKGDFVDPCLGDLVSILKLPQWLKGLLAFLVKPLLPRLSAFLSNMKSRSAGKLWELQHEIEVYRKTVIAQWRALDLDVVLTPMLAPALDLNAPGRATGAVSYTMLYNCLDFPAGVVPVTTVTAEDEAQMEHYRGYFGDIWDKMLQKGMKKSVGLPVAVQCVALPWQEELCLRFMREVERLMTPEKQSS
Put plainly: Inhibition of human recombinant FAAH.

In data set [2] the target is T2, Fatty-acid amide hydrolase 1 (Mus musculus, UniProt O08914).
T2 sequence (O08914 whole entry): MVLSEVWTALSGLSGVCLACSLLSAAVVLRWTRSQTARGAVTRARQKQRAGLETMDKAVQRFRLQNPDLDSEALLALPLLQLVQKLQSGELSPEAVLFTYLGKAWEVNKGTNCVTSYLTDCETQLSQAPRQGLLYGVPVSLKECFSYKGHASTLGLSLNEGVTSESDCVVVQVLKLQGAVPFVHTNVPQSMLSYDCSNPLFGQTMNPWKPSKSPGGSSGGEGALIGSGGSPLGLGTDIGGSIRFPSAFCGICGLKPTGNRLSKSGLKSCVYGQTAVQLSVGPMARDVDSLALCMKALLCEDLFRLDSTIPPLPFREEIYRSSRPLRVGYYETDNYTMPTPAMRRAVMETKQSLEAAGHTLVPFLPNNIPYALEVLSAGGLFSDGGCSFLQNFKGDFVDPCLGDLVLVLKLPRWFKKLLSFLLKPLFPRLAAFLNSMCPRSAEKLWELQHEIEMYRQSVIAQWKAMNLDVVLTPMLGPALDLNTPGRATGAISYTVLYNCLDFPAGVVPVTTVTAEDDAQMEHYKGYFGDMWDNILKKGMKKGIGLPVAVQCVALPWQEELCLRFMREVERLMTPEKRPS
Put plainly: Inhibition of mouse FAAH isolated from brain homogenate using [3H-ethanolamine]AEA as substrate incubated for 20 mins prior to substrate addition measured after 15 mins by beta counting analysis.

For data set [3], the system named is Rattus norvegicus. Put plainly: Analgesic activity in rat assessed as increase in paw withdrawal threshold at 50 mg/kg, po. Format: functional, organism-based. More on the design: dose 50 mg/kg.
Data set [4] has as its system Rattus norvegicus. Put plainly: Analgesic activity in rat assessed as increase in paw withdrawal threshold at 100 mg/kg, po. Format: functional, organism-based. The arrangement: dose 100 mg/kg.
In data set [5] the test system is Rattus norvegicus. In words: Analgesic activity in rat assessed as increase in paw withdrawal threshold at 30 mg/kg, po. Format: functional, organism-based. More on the design: dose 30 mg/kg.
In data set [6] the test system is Mus musculus. Put plainly: Anxiolytic activity in mouse at 30 mg/kg, po measured for 5 mins by elevated plus maze test. Format: organism-based. The arrangement: dose 30 mg/kg, route oral. The note with it: in vivo.
Data set [7] concerns Rattus norvegicus. In words: Analgesic activity in rat assessed as increase in paw withdrawal threshold at 10 mg/kg, po. Format: functional, organism-based. The arrangement: dose 10 mg/kg.
Data set [8] deals with Mus musculus. In words: Anxiolytic activity in mouse at 10 mg/kg, po measured for 5 mins by elevated plus maze test. It is filed as organism-based. More on the design: dose 10 mg/kg, route oral. The note with it: in vivo.
Data set [9] deals with Mus musculus. In words: Toxicity against CD1 mouse assessed as limbic/striatal stereotypies at 100 mg/kg, po at 240 mins by Irwin test. Format: organism-based. The arrangement: dose 100 mg/kg, route oral. The note with it: in vivo, 4 h.
The test system of data set [10] is Mus musculus. Put plainly: Anxiolytic activity in mouse at 3 mg/kg, po measured for 5 mins by elevated plus maze test. More on the design: dose 3 mg/kg, route oral. Format: organism-based. The note with it: in vivo.
Data set [11] has as its system Mus musculus. In words: Toxicity against CD1 mouse assessed as limbic/striatal stereotypies at 30 mg/kg, po at 240 mins by Irwin test. Format: organism-based. More on the design: dose 30 mg/kg, route oral. The note with it: in vivo, 4 h.
The subject of data set [12] is Mus musculus. Put plainly: Toxicity against CD1 mouse assessed as limbic/striatal stereotypies at 10 mg/kg, po at 240 mins by Irwin test. The note with it: in vivo, 4 h. Format: organism-based. More on the design: dose 10 mg/kg, route oral.
Data set [13] has as its system Mus musculus. Put plainly: Toxicity against CD1 mouse assessed as limbic/striatal stereotypies at 30 mg/kg, po at 60 mins by Irwin test. It is filed as organism-based. The arrangement: dose 30 mg/kg, route oral. The note with it: in vivo, 1 h.
In data set [14] the test system is Mus musculus. Put plainly: Toxicity against CD1 mouse assessed as limbic/striatal stereotypies at 100 mg/kg, po at 60 mins by Irwin test. Format: organism-based. More on the design: dose 100 mg/kg, route oral. The note with it: in vivo, 1 h.
For data set [15], the system named is Mus musculus. In words: Toxicity against CD1 mouse assessed as limbic/striatal stereotypies at 10 mg/kg, po at 60 mins by Irwin test. It is filed as organism-based. The arrangement: dose 10 mg/kg, route oral. The note with it: in vivo, 1 h.
Data set [16] concerns the target Voltage-gated inwardly rectifying potassium channel KCNH2 (Homo sapiens, UniProt Q12809). Put plainly: Inhibition of human ERG expressed in CHOK1 cells for 5 mins by automated patch clamp assay. Format: cell-based, CHO-K1. A general note: Patch clamp records ionic current or voltage across a cell membrane.
Data set [17] deals with T3, Monoglyceride lipase (Mus musculus) (UniProt O35678).
T3 sequence (whole entry): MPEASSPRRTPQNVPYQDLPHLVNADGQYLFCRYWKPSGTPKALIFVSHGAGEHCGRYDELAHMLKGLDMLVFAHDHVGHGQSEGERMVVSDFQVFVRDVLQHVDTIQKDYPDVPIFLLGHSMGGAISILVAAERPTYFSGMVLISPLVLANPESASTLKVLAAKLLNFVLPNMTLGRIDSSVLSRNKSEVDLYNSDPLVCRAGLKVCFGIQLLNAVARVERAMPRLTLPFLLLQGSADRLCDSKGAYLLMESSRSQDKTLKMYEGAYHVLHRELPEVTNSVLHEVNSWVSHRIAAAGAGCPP
Put plainly: Inhibition of MAGL-mediated 2AG hydrolysis in mouse brain homogenate using [3H]2OG as substrate incubated for 20 mins prior to substrate addition. Format: tissue-based.

The species named for data set [18] is Mus musculus. Put plainly: Inhibition of DAGL-mediated 2AG synthesis in mouse brain homogenate using […] as substrate incubated for 20 mins prior to substrate addition. It is filed as tissue-based.
In data set [19] the target is T4, N-acyl-phosphatidylethanolamine-hydrolyzing phospholipase D (Mus musculus) (UniProt Q8BH82).
T4 sequence (whole entry): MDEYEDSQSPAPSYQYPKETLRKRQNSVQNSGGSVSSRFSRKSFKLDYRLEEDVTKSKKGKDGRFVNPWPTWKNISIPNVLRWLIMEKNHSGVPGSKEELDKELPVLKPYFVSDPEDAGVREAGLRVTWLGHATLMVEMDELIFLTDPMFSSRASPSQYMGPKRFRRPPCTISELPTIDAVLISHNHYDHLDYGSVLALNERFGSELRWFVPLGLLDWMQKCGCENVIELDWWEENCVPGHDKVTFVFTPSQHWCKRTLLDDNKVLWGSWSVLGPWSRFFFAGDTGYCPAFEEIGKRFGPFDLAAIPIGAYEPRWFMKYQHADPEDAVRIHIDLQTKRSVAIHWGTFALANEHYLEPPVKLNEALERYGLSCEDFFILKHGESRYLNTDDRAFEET
Put plainly: Inhibition of NAPE-PLD-meidated AEA synthesis in mouse brain homogenate using [3H]NArPE as substrate incubated for 20 mins prior to substrate addition. It is filed as tissue-based.

For data set [20], the target named is Transient receptor potential cation channel subfamily V member 1 (Mus musculus) (UniProt Q704Y3). Put plainly: Displacement of [3H]RTX from TRPV1 receptor in mouse brain fraction. Format: tissue-based. For orientation: In a radioligand displacement assay an active substance lowers the binding of a labelled ligand.
Data set [21] concerns the target Cannabinoid receptor 2 (Mus musculus) (UniProt P47936). In words: Displacement of [3H]CP55.940 from CB2 receptor in mouse spleen fraction. Format: tissue-based.
The target in data set [22] is Cannabinoid receptor 1 (Mus musculus) (UniProt P47746). In words: Displacement of [3H]CP55.940 from CB1 receptor in mouse brain fraction. Format: tissue-based.

Structures are written as SMILES. Active and inactive are the calls of the source.

Transient receptor potential cation channel subfamily V member 1 (Mus musculus), sequence (Q704Y3 whole entry): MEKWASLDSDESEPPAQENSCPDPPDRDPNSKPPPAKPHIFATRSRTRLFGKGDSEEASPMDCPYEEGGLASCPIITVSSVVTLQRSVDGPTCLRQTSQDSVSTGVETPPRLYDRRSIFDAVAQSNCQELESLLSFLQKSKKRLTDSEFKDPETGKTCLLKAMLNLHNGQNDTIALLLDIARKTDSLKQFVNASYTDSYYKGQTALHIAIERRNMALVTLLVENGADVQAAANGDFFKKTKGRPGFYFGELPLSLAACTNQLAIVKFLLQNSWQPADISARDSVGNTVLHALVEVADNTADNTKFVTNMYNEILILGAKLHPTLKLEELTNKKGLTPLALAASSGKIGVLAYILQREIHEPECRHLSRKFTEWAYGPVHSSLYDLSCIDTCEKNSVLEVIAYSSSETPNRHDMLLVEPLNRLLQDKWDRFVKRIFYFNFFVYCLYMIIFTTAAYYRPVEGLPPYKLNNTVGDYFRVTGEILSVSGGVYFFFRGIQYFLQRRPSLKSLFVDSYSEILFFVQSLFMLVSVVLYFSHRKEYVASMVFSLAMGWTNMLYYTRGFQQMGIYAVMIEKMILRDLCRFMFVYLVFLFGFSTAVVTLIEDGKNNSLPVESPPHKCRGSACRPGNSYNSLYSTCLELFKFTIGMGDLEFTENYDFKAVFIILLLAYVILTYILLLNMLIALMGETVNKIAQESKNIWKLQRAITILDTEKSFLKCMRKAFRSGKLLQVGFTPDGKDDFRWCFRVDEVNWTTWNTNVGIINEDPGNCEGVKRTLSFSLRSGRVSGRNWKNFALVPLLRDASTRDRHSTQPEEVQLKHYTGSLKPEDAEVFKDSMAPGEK
Cannabinoid receptor 1 (Mus musculus), sequence (P47746 whole entry): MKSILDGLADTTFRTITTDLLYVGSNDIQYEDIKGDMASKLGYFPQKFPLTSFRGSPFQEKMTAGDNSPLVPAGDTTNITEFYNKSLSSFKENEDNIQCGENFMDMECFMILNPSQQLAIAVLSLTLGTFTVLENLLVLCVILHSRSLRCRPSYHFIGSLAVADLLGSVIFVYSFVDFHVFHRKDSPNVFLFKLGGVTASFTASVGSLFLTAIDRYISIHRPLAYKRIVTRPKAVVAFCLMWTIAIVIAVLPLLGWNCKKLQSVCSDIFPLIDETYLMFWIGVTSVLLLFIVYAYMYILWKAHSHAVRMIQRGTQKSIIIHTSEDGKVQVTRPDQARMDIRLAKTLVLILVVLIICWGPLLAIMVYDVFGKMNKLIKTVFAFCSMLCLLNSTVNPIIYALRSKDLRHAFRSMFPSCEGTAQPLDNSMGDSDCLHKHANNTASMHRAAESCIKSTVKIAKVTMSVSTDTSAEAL
Cannabinoid receptor 2 (Mus musculus), sequence (P47936 whole entry): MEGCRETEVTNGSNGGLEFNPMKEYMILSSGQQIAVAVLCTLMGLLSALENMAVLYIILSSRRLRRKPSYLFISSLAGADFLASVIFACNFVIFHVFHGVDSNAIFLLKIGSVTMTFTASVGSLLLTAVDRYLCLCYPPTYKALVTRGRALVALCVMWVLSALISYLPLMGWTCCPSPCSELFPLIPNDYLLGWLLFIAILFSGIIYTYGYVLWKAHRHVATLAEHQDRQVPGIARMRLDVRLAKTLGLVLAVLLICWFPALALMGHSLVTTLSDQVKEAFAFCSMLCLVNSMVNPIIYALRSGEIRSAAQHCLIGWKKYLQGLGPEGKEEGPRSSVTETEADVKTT
Voltage-gated inwardly rectifying potassium channel KCNH2, sequence (Q12809 whole entry): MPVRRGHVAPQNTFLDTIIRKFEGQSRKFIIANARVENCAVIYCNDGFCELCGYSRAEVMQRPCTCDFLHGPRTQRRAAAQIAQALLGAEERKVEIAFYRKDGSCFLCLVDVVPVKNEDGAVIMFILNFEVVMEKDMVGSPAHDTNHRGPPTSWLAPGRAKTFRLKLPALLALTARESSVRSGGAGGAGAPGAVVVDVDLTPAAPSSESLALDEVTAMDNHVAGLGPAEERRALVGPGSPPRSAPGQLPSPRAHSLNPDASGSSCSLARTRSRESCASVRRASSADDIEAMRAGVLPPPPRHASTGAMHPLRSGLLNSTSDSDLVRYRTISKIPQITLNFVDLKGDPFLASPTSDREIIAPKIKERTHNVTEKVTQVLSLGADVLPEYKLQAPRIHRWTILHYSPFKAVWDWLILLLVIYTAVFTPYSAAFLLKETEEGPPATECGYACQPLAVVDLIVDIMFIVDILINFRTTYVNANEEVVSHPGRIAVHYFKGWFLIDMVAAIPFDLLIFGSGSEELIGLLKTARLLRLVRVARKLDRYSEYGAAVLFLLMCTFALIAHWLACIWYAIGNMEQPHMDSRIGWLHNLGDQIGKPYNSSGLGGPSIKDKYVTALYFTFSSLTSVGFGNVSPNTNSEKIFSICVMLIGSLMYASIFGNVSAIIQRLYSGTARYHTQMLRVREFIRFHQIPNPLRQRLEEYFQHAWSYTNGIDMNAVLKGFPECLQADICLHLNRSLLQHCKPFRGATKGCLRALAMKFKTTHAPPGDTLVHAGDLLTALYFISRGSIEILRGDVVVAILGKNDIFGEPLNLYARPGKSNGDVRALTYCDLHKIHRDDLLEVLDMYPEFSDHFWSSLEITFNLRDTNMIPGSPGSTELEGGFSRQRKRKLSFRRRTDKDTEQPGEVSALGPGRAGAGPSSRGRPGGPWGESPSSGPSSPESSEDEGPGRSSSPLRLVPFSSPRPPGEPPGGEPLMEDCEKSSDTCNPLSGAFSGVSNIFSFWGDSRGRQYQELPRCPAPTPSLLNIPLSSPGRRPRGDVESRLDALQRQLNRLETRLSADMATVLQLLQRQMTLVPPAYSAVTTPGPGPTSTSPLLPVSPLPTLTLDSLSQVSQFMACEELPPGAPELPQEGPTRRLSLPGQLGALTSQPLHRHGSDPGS

What is called IC50 is the point on the concentration scale where inhibition reaches its midpoint. In the case of `NC(=O)c1cccc(-c2cccc(OC(=O)NCCCCCCc3ccccc3)c2)c1`, the IC50 in data set [1] amounted to 36 nM; in [2], 14 nM.

Take `NC(=O)c1cccc(-c2cccc(OC(=O)NC3CCCCC3)c2)c1`: the outcome in [3] was inactive.

Broadly, the Ki is a dissociation constant, usually derived from enzyme kinetics or from competition with a known ligand. Low values mean tighter binding, high ones weaker binding. Take `Cc1cc(C(N)=O)c(-c2cccc(OC(=O)NCCCCCCc3ccccc3)c2)o1`: the outcome in data set [4] and in data set [5] was Active. Moreover, the Activity entry in data set [6], in [8], in [9], in data set [10], in data set [11] and in data set [12] was “Non-toxic” each time. Besides, the Activity entry in data set [13], in data set [14] and in data set [15] was “Toxic” throughout. Besides, the result in [7], in [20], in data set [21] and in data set [22] was inactive. Further, the IC50 in data set [16] was above 10000 nM; in data set [1] it was 102 nM; in data set [2], 1.7 nM. The inhibition result in data set [17], in data set [18] and in [19] was “inactive” throughout. This compound also yielded a Ki in data set [2] of 0.49 nM.

The record behind these values is ChEMBL document CHEMBL2163339, “Discovery of potent inhibitors of human and mouse fatty acid amide hydrolases” (J Med Chem, 2012).
